Results reported in US20240108684A1, “DOSING REGIMENS FOR TREATMENT OF FUNGAL INFECTIONS” (priority 2016, published 2024).
Read-outs that look alike come from different tables or passages of the source. *1 amine or outer side, *2 acyl side, *3 side chain or, on linkers, in order; H or OH if unused. Where a SMILES comes first, the peptide text is derived from it. Bridges are numbered along the chain shown (N, C = ends). [ ]: non-standard residue; d: D form. The star is where a group is joined. Orn(4R-OH,5R-OCH2CH2NMe3+) = C[N+](C)(C)CCO[C@@H](N[*:3])[C@H](O)C[C@H](N[*:1])C(=O)[*:2]; pTerphenylCO(4''-OnC5H11) = CCCCCOc1ccc(-c2ccc(-c3ccc(C(=O)*)cc3)cc2)cc1; hTyr(3S-OH,4S-OH) = N[C@H](C(=O)O)[C@H](O)[C@@H](O)c1ccc(O)cc1; Pro(3S-OH,4S-Me) = C[C@H]1CN[C@H](C(=O)O)[C@H]1O; Hyp = O=C(O)[C@@H]1C[C@@H](O)CN1

Key:
C.albicans (Strain R303) [1] = assay: Dose-fractionation study in neutropenic mice, kidney fungal burden; conditions: 2 mg/kg as a single dose IP, at 168 hours
Procedure: Dose-Fractionation Study. Male or female ICR mice (5 per regimen and observation time) weighing 22±2 g were rendered neutropenic for the study by injecting the mice with cyclophosphamide treatment four days (−Day 4) (150 mg/kg IP) and one day (−Day 1) prior to infection at 100 mg/kg IP. Neutropenia was sustained for the duration of the study with cyclophosphamide doses (100 mg/kg IP) every 48 hours on days +1, +3, +5 and +7 after infection.
Mice were sacrificed 168 hours (7 days) following the start of treatment. Control arm mice were sacrificed 0, 24, and 48 hours post administration of vehicle. Paired kidneys are aseptically harvested, homogenized, and plated for colony counts to determine the fungal burden (CFU/g).

C. glabrata [2] = assay: Mutant prevention concentration (MPC); assay type: cell-based, Candida glabrata
Description: As used herein, the term “mutant prevention concentration” or “MPC” refers to the concentration of a drug sufficient to suppress the development of all but very rare spontaneous mutants. The range of drug concentrations between the MIC and MPC represents a mutant selection window wherein de novo mutants are most likely to occur. Therapeutic regimens that maximize the duration of drug concentrations in excess of the MPC thereby minimize the potential for resistance development during the course of therapy.
(§1) Selection of resistance strains in vivo predominantly occurs over a range of drug concentrations falling between the MIC and MPC values. Dosing paradigms that result in plasma drug concentrations in excess of the MPC are therefore more desirable and effective in preventing the development of de novo mutants during the course of therapy (see, e.g., Drlica et al., J. Antimicrob. Chemother. 52:11-17, 2003). Currently approved treatment regimens for caspofungin, micafungin, and anidulafungin involve once-daily dosing at levels such that the Cmax is unlikely to be equivalent to or exceed the MPC at any point during treatment.

[3] = Single ascending dose IV study in healthy adult subjects (safety, PK); assay type: in vivo, human; conditions: for AUC(0-t): read-out: AUC0-168; for concentration at 144 h: read-out: C144
Procedure: In a first study, CD101 was administered by IV injection to healthy adult subjects. In this study, subjects in 4 cohorts of 8 subjects (6 active, 2 placebo) each were randomized to receive single IV doses of CD101 or placebo (normal saline) infused over 60 (±5) minutes. Dose levels of CD101 assessed follow an ascending single-dose regimen (50, 100, 200, or 400 mg).
Pharmacokinetics were first determined by analyzing plasma and urine samples for concentration of CD101 obtained from subjects who received CD101 in each cohort at various time points after administration of the single dose of the study drug.

C. auris isolates = assay: Candida auris antifungal susceptibility testing (AFST), CLSI M27-A3; assay type: cell-based
C. glabrata [4] = assay: MIC by CLSI standards; conditions: Nakaseomyces glabratus
Murine protein binding = assay type: in vitro ADME; conditions: used to generate free-drug plasma concentrations
Candida albicans = assay: Nonclinical studies of Candida albicans infections in mice (PK-PD target); assay type: in vivo
Procedure: (§2) Monte Carlo simulations were conducted to assess the probability of PK-pharmacodynamic (PD) target attainment using a variety of exploratory dosing regimens. Two dosing regimens were selected for further investigation (Table 5). […] Nonclinical studies of Candida albicans infections in mice have shown that a CD101 fAUC0-168:MIC ratio of 10 has been associated with a 2-log reduction in fungal burden in infected kidneys. This value of 10 was therefore chosen as the PK-PD target of interest for the Monte Carlo simulations.

[5] = Modeling of CD101 total plasma concentrations versus MPC; conditions: modeling based on in vivo PK data
Description: as §1

[6] = Plasma protein binding assumed for the simulations; assay type: in vitro ADME; conditions: assumed for the Monte Carlo simulations
Procedure: as §2

C.albicans (Strain R303) [7] = assay: MIC of the infecting strain R303; conditions: Candida albicans
C. albicans [8] = assay: MIC by CLSI standards; conditions: Candida albicans
[9] = Pharmacokinetic study, single IP dose; assay type: in vivo, ICR mice; conditions: 1 to 16 mg/kg IP
Procedure: Pharmacokinetic Study. Healthy female ICR mice were given a single dose of CD101 via intraperitoneal (IP) injection. The following doses, at three mice per dose, were studied: 1, 4, and 16 mg/kg.

[10] = PK model, free-drug plasma concentration-time profiles of fractionated regimens; design: species or system mice
Procedure: Pharmacokinetic-Pharmacodynamic Analyses. Using the data collected from the PK study, a PK model was developed in S-ADAPT. Using the developed PK model, concentration-time profiles and AUC0-168h values were computed for each dosing regimen administered in the dose-fractionation study. […] Relationships between the change in log10 CFU from start of therapy and AUC0-168h were explored.

[11] = system: azole-resistant C. albicans R357 strain; assay: MIC and CLSI susceptibility, azole-resistant C. albicans R357; assay type: cell-based, Candida albicans; conditions: Candida albicans
glabrata = conditions: Sentry 2014; compared with MIC of 0.5 mg/L; cited from earlier work
C. glabrata [12] = assay: Neutropenic murine disseminated candidiasis model, PK/PD; conditions: for 1 log kill dose / Static Dose: single IP dose, 7 days
C. albicans [13] = conditions: Sentry 2014; compared with MIC of 0.5 mg/L; cited from earlier work
[14] = human, plasma, 50 mg 1-hour IV infusion
[15] = human, plasma, 100 mg 1-hour IV infusion
[16] = human, plasma, 200 mg 1-hour IV infusion
[17] = human, plasma, 400 mg 1-hour IV infusion
[18] = single IV 50, 100, 200 or 400 mg

## CCCCCOc1ccc(-c2ccc(-c3ccc(C(=O)N[C@H]4C[C@@H](O)[C@@H](OCC[N+](C)(C)C)NC(=O)[C@@H]5[C@@H](O)[C@@H](C)CN5C(=O)[C@H]([C@@H](C)O)NC(=O)[C@H]([C@H](O)[C@@H](O)c5ccc(O)cc5)NC(=O)[C@@H]5C[C@@H](O)CN5C(=O)[C@H]([C@@H](C)O)NC4=O)cc3)cc2)cc1 [CD101] ({pTerphenylCO(4''-OnC5H11)}-[Orn(4R-OH,5R-OCH2CH2NMe3+)]T[Hyp][hTyr(3S-OH,4S-OH)]T[Pro(3S-OH,4S-Me)]; lactam 1-C)
C.albicans (Strain R303) [1]
  CFU reduction from baseline: greater than 2 log10 CFU
C. glabrata [2]
  MPC: 16 µg/mL
[3]; 400 mg 1-hour IV infusion
  Cmax: 22700 ng/mL
[3]; 50-400 mg single IV
  Dose proportionality: AUC and Cmax increased in a dose proportional manner
[3]; all dose levels
  Fraction of dose excreted in urine: < 1%
[3]; human, plasma, intravenous, incorporating data from later collection times, read-out: terminal t1/2
  half-life: 127 to 146 h
[3]; human, plasma, intravenous, through the first week of plasma collection, read-out: t1/2 (converted)
  half-life: > 80 h
[3]; human, plasma, intravenous, 50-400 mg, read-out: Volume of distribution (Vz and Vss)
  Vd: 33 to 48 L
[3]; human, plasma, intravenous, across the CD101 doses 50-400 mg, read-out: Total body clearance
  clearance: ~4 mL/min
[3]; human, plasma, intravenous, after start of 1-hour infusion, all doses
  Tmax: ~1 h
[3]; human, plasma, iv, 50 mg, 50 mg 1-hour IV infusion, read-out: t1/2 (converted)
  half-life: 86 h
[3]; human, plasma, iv, 100 mg, 100 mg 1-hour IV infusion, read-out: t1/2 (converted)
  half-life: 92 h
[3]; human, plasma, iv, 200 mg, 200 mg 1-hour IV infusion, read-out: t1/2 (converted)
  half-life: 91 h
[3]; human, plasma, iv, 400 mg, 400 mg 1-hour IV infusion, read-out: t1/2 (converted)
  half-life: 84 h
[3]; [14]
  AUC(0-t): 145 µg·h/mL
  concentration at 144 h: 481 ng/mL
[3]; human, plasma, 50 mg 1-hour IV infusion, read-out: Cmax
  Cmax: 2760 ng/mL
[3]; [15]
  AUC(0-t): 254 µg·h/mL
  concentration at 144 h: 854 ng/mL
[3]; human, plasma, 100 mg 1-hour IV infusion, read-out: Cmax
  Cmax: 4840 ng/mL
[3]; [16]
  AUC(0-t): 592 µg·h/mL
  concentration at 144 h: 2010 ng/mL
[3]; human, plasma, 200 mg 1-hour IV infusion, read-out: Cmax
  Cmax: 10900 ng/mL
[3]; [17]
  AUC(0-t): 1160 µg·h/mL
  concentration at 144 h: 3830 ng/mL
[3]; [18]
  Drug-related AEs from laboratory abnormalities: no drug-related AEs resulting from clinically significant hematology or clinical chemistry laboratory abnormalities at any dose
  ECG, vital signs, physical exam: no safety issues related to electrocardiograms (ECGs), vital signs, or physical exam findings
  Serious and severe adverse events: no serious adverse events (SAEs), severe adverse events (AEs), or dose-response relationships for overall AEs
  Severity and resolution of AEs: majority of AEs were mild, and all AEs completely resolved by the end of the study
[3]; single dose up to 400 mg
  Safety and tolerability: safe and well tolerated
C. auris isolates; 38 C. auris isolates
  Activity in comparison: activity similar to MICA
C. auris isolates; C. auris strains
  Breakthrough at 48 h: not with CD101
C. auris isolates; of 38 isolates
  Number of resistant C. auris isolates: 4
C. glabrata [4]; C. glabrata 5592
  MIC: 0.06 µg/mL
C. glabrata [4]; C. glabrata 10956
  MIC: 0.5 µg/mL
C. glabrata [4]; C. glabrata 35315
  MIC: 0.25 µg/mL
C. glabrata [4]; read-out: MICs, 3 C. glabrata strains
  MIC: 0.06 to 0.5 µg/mL
Murine protein binding
  Murine protein binding value: 99.1%
Candida albicans
  fAUC0-168:MIC ratio associated with a 2-log reduction in fungal burden in infected kidneys: 10
[5]
  IV dose sufficient to generate concentrations in excess of 16 μg/ml (MPC): ≥ 150 mg
[6]
  Plasma protein binding: 99.1%
C.albicans (Strain R303) [7]
  MIC: 0.125 µg/mL
C. albicans [8]; C. albicans 98-17
  MIC: 0.06 µg/mL
C. albicans [8]; C. albicans 98-210
  MIC: 0.016 µg/mL
C. albicans [8]; C. albicans 580
  MIC: 0.016 µg/mL
C. albicans [8]; C. albicans K-1
  MIC: 0.008 µg/mL
C. albicans [8]; read-out: MICs, 4 C. albicans strains
  MIC: 0.008 to 0.06 µg/mL
[9]
  Linearity of PK: linear PK
[10]; 2 mg/kg total dose
  Time free-drug plasma concentrations of single dose remain above the daily regimen: 48 h
  Time free-drug plasma concentrations of single dose remain above the twice weekly regimen: 84 h
[10]; CD101 2 mg/kg as a single dose
  Free-drug plasma AUC0≥: 0.0654 mgh/L
[10]; CD101 2 mg/kg total, daily regimen
  Free-drug plasma AUC0≥: 0.00948 mgh/L
[10]; CD101 2 mg/kg total, twice weekly
  Free-drug plasma AUC0≥: 0.0303 mgh/L
[11]
  MIC: 0.125 µg/mL
glabrata
  MIC90: 0.06 µg/mL
C. glabrata [12]; C. glabrata 5592
  1 log kill Ave 24 h AUC/MIC: 114
  Stasis Ave 24 h AUC/MIC: 21.7
  1 log kill dose: 0.51 mg/kg
  Static Dose: 0.03 mg/kg
C. glabrata [12]; C. glabrata 10956
  1 log kill Ave 24 h AUC/MIC: 301
  Stasis Ave 24 h AUC/MIC: 120
  1 log kill dose: 17.3 mg/kg
  Static Dose: 6.29 mg/kg
C. glabrata [12]; C. glabrata 35315
  1 log kill Ave 24 h AUC/MIC: 105
  Stasis Ave 24 h AUC/MIC: 17.9
  1 log kill dose: 2.39 mg/kg
  Static Dose: 0.34 mg/kg
C. albicans [13]
  MIC90: 0.06 µg/mL
